We go through 20 compounds from patent US9062071B2, “Substituted piperidines as HDM2 inhibitors” (Merck Sharp & Dohme Corp, priority 2011, dated 2015).

SMILES strings stand for the structures.

This assay deals with HDM2 protein (Homo sapiens, UniProt Q00987). Description: fluorescence polarization screening assay (FP IC50). It counts as binding. The note with it: class symbols. As to the method: The compounds were evaluated to determine activity at the HDM2 protein by known methods such as the fluorescence polarization screening assay that measures the inhibitory concentration that achieves 50% of maximal activity (FP IC50) and the dissociation constant for inhibitor binding (FP Ki). [Zhang et al., J. Analytical Biochemistry 331: 138-146 (2004)].
Chain of HDM2 protein (Q00987 whole entry): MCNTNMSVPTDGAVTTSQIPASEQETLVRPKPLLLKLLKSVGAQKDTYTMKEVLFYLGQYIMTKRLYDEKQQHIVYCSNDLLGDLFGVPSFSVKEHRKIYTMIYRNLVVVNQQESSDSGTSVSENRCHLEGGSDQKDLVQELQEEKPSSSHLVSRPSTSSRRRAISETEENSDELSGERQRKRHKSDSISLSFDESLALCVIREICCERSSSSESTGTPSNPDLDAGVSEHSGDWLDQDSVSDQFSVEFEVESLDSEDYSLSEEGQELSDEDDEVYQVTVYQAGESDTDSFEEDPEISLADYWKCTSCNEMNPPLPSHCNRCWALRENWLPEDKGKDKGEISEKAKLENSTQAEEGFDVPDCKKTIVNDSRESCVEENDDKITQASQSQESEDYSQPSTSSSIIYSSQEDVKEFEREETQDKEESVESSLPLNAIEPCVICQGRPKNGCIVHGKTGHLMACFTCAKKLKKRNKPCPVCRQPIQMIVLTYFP

In turn, `CCC[C@H]1N(C(=O)c2ncccc2C(F)(F)F)CCC[C@@]1(Oc1csc(C(F)(F)F)c1)C(=O)N1Cc2ccc(F)cc2C[C@@H]1C(=O)NCCO` [Compound A150, (3R)-6-fluoro-N-(2-hydroxyethyl)-2-{[(2R,3S)-2-propyl-1-{[3-(trifluoromethyl)pyridin-2-yl]carbonyl}-3-{[5-(trifluoromethyl)thiophen-3-yl]oxy}piperidin-3-yl]carbonyl}-1,2,3,4-tetrahydroisoquinoline-3-carboxamide] returned an IC50 of 1 to 100 nM.
For `CCC[C@H]1N(C(=O)c2ncccc2C(F)(F)F)CCC[C@@]1(Oc1csc(C(F)(F)F)c1)C(=O)N1CCc2cc(Cl)ccc2C1CC(=O)O` (stereo partly drawn) [Compound A55, (6-chloro-2-{[(2R,3S)-2-propyl-1-{[3-(trifluoromethyl)pyridin-2-yl]carbonyl}-3-{[5-(trifluoromethyl)thiophen-3-yl]oxy}piperidin-3-yl]carbonyl}-1,2,3,4-. tetrahydroisoquinolin-1-yl)acetic acid], the IC50 is 1 to 100 nM.
The same measure for `CCC[C@H]1N(C(=O)c2cnccc2C(F)(F)F)CCC[C@@]1(Oc1csc(C(F)(F)F)c1)C(=O)N1Cc2ccccc2C[C@H]1CO` [Compound A120, [(3S)-2-{[(2R,3S)-2-propyl-1-{[4-(trifluoromethyl)pyridin-3-yl]carbonyl}-3-{[5-(trifluoromethyl)thiophen-3-yl]oxy}piperidin-3-yl]carbonyl}-1,2,3,4-tetrahydroisoquinolin-3-yl]methanol]: 101 to 20000 nM.
Turning to `CCC[C@H]1N(C(=O)c2ncccc2C(F)(F)F)CCC[C@@]1(Oc1csc(C(F)(F)F)c1)C(=O)N1Cc2ccc(Cl)cc2C[C@@H]1CCCF` [Compound A141, (3S)-6-chloro-3-(3-fluoropropyl)-2-{[(2R,3S)-2-propyl-1-{[3-(trifluoromethyl)pyridin-2-yl]carbonyl}-3-{[5-(trifluoromethyl)thiophen-3-yl]oxy}piperidin-3-yl]carbonyl}-1,2,3,4-tetrahydroisoquinoline], the IC50 was in the range of 101 to 20000 nM.
Regarding `CCC[C@H]1N(C(=O)c2ncccc2C(F)(F)F)CCC[C@@]1(Oc1csc(C(F)(F)F)c1)C(=O)N1CCc2cc(Cl)ccc2C1CCC(=O)NS(C)(=O)=O` (stereo partly drawn) [Compound A61, 3-(6-chloro-2-{[(2R,3S)-2-propyl-1-{[3-(trifluoromethyl)pyridin-2-yl]carbonyl}-3-{[5-(trifluoromethyl)thiophen-3-yl]oxy}piperidin-3-yl]carbonyl}-1,2,3,4-tetrahydroisoquinolin-1-yl)-N-(methylsulfonyl) propanamide], the IC50 lay in the range of 1 to 100 nM.
In turn, `CN1CCN(CC[C@H]2N(C(=O)c3ncccc3C(F)(F)F)CCC[C@@]2(Oc2csc(C(F)(F)F)c2)C(=O)N2CCc3cc(Cl)ccc3C2)CC1` [Compound A115, 6-chloro-2-{[(2R,3S)-2-[2-(4-methylpiperazin-1-yl)ethyl]-1-{[3-(trifluoromethyl)pyridin-2-yl]carbonyl}-3-{[5-(trifluoromethyl)thiophen-3-yl]oxy}piperidin-3-yl]carbonyl}-1,2,3,4-tetrahydroisoquinoline] displayed an IC50 of 1 to 100 nM.
In the case of `CCC[C@H]1N(C(=O)c2ncccc2C(F)(F)F)CCC[C@@]1(Oc1csc(C(F)(F)F)c1)C(=O)N1CCc2cc(Cl)ccc2C1CC(C)(C)C(=O)NS(C)(=O)=O` (single isomer, unassigned) [Compound A68] it was 1 to 100 nM; in that of `CCC[C@H]1N(C(=O)c2ncccc2C(F)(F)F)CCC[C@@]1(Oc1csc(C(F)(F)F)c1)C(=O)N1Cc2sc(Br)cc2C[C@H]1C(=O)NS(C)(=O)=O` [Compound A175, (5S)-2-bromo-N-(methylsulfonyl)-6-{[(2R,3S)-2-propyl-1-{[3-(trifluoromethyl)pyridin-2-yl]carbonyl}-3-{[5-(trifluoromethyl)thiophen-3-yl]oxy}piperidin-3-yl]carbonyl}-4,5,6,7-tetrahydrothieno[2,3-c]pyridine-5-carboxamide], 1 to 100 nM.
In the case of `CCC[C@H]1N(C(=O)c2ncccc2C(F)(F)F)CCC[C@@]1(Oc1csc(C(F)(F)F)c1)C(=O)N1Cc2sccc2CC1C(=O)O` (stereo partly drawn) [Compound A171, 6-{[(2R,3S)-2-propyl-1-{[3-(trifluoromethyl)pyridin-2-yl]carbonyl}-3-{[5-(trifluoromethyl)thiophen-3-yl]oxy}piperidin-3-yl]carbonyl}-4,5,6,7-tetrahydrothieno[2,3-c]pyridine-5-carboxylic acid], the IC50 was in the range of 101 to 20000 nM.
`CCC[C@H]1N(C(=O)c2ncccc2C(F)(F)F)CCC[C@@]1(Oc1csc(C(F)(F)F)c1)C(=O)N1Cc2ccc(F)cc2C[C@@H]1CCCC(=O)O` [Compound A146, 4-[(3S)-6-fluoro-2-{[(2R,3S)-2-propyl-1-{[3-(trifluoromethyl)pyridin-2-yl]carbonyl}-3-{[5-(trifluoromethyl)thiophen-3-yl]oxy}piperidin-3-yl]carbonyl}-1,2,3,4-tetrahydroisoquinolin-3-yl]butanoic acid] showed a half-maximal inhibitory concentration (IC50) of 1 to 100 nM.
The same measure for `COCC1c2ccc(Cl)cc2CCN1C(=O)[C@]1(Oc2csc(C(F)(F)F)c2)CCCN(C(=O)c2ncccc2C(F)(F)F)[C@@H]1CCN1CCCC1` (stereo partly drawn) [Compound A16, 6-chloro-1-(methoxymethyl)-2-{[(2R,3S)-2-(2-pyrrolidin-1-ylethyl)-1-{[3-(trifluoromethyl)pyridin-2-yl]carbonyl}-3-{[5-(trifluoromethyl)thiophen-3-yl]oxy}piperidin-3-yl]carbonyl}-1,2,3,4-tetrahydroisoquinoline]: 1 to 100 nM.
The same measure for `COCC1c2ccc(Cl)cc2CCN1C(=O)[C@]1(Oc2csc(C(F)(F)F)c2)CCCN(C(=O)c2ncccc2C(F)(F)F)[C@@H]1CC(=O)O` (stereo partly drawn) [Compound A18, [(2R,3S)-3-{[6-chloro-1-(methoxymethyl)-3,4-dihydroisoquinolin-2(1H)-yl]carbonyl}-1-{[3-(trifluoromethyl)pyridin-2-yl]carbonyl}-3-{[5-(trifluoromethyl)thiophen-3-yl]oxy}piperidin-2-yl]acetic acid]: 1 to 100 nM; for `CCC[C@H]1N(C(=O)c2ncccc2C(F)(F)F)CCC[C@@]1(Oc1csc(C(F)(F)F)c1)C(=O)N1CCc2cc(Cl)c(Cl)cc2C1` [Compound A87, 6,7-dichloro-2-{[(2R,3S)-2-propyl-1-{[3-(trifluoromethyl)pyridin-2-yl]carbonyl}-3-{[5-(trifluoromethyl)thiophen-3-yl]oxy}piperidin-3-yl]carbonyl}-1,2,3,4-tetrahydroisoquinoline]: 101 to 20000 nM.
In the case of `CCC[C@H]1N(C(=O)c2ncccc2C(F)(F)F)CCC[C@@]1(Oc1csc(C(F)(F)F)c1)C(=O)N1CCc2cc(N(C)C)ccc2C1` [Compound A83, N,N-dimethyl-2-{[(2R,3S)-2-propyl-1-{[3-(trifluoromethyl)pyridin-2-yl]carbonyl}-3-{[5-(trifluoromethyl)thiophen-3-yl]oxy}piperidin-3-yl]carbonyl}-1,2,3,4-tetrahydroisoquinolin-6-amine] it was 101 to 20000 nM.
As for `CCC[C@H]1N(C(=O)c2ncccc2C(F)(F)F)CCC[C@@]1(Oc1csc(C(F)(F)F)c1)C(=O)N1Cc2ccc(F)cc2C[C@H]1C[C@H](C(=O)O)C(C)C` [Compound A153, (2S)-2-{[(3R)-6-fluoro-2-{[(2R,3S)-2-propyl-1-{[3-(trifluoromethyl)pyridin-2-yl]carbonyl}-3-{[5-(trifluoromethyl)thiophen-3-yl]oxy}piperidin-3-yl]carbonyl}-1,2,3,4-tetrahydroisoquinolin-3-yl]methyl}-3-methylbutanoic acid], the IC50 lay in the range of 1 to 100 nM.
In the case of `CCC[C@H]1N(C(=O)c2ncccc2C(F)(F)F)CCC[C@@]1(Oc1csc(C(F)(F)F)c1)C(=O)N1Cc2ccc(Cl)cc2C[C@@H]1C(=O)N1CCC[C@@H](O)C1` [Compound A170, (3R)-1-{[(3R)-6-chloro-2-{[(2R,3S)-2-propyl-1-{[3-(trifluoromethyl)pyridin-2-yl]carbonyl}-3-{[5-(trifluoromethyl)thiophen-3-yl]oxy}piperidin-3-yl]carbonyl}-1,2,3,4-tetrahydroisoquinolin-3-yl]carbonyl}piperidin-3-ol] it was 1 to 100 nM.
The same measure for `CCC[C@H]1N(C(=O)c2ncccc2C(F)(F)F)CCC[C@@]1(Oc1csc(C(F)(F)F)c1)C(=O)N1Cc2cc(F)ccc2C[C@H]1C(=O)O` [Compound A128, (3S)-7-fluoro-2-{[(2R,3S)-2-propyl-1-{[3-(trifluoromethyl)pyridin-2-yl]carbonyl}-3-{[5-(trifluoromethyl)thiophen-3-yl]oxy}piperidin-3-yl]carbonyl}-1,2,3,4-tetrahydroisoquinoline-3-carboxylic acid]: 1 to 100 nM.
The same measure for `CCC[C@H]1N(C(=O)c2ncccc2C(F)(F)F)CCC[C@@]1(Oc1csc(C(F)(F)F)c1)C(=O)N1Cc2ccc(Cl)cc2C[C@@H]1C[C@H](C)C(=O)O` [Compound A137, (2S)-3-[(3S)-6-chloro-2-{[(2R,3S)-2-propyl-1-{[3-(trifluoromethyl)pyridin-2-yl]carbonyl}-3-{[5-(trifluoromethyl)thiophen-3-yl]oxy}piperidin-3-yl]carbonyl}-1,2,3,4-tetrahydroisoquinolin-3-yl]-2-methylpropanoic acid]: 1 to 100 nM.
Turning to `CC(C)(C(=O)O)C1CCN(CC[C@H]2N(C(=O)c3ncccc3C(F)(F)F)CCC[C@@]2(Oc2csc(C(F)(F)F)c2)C(=O)N2CCc3cc(Cl)ccc3C2)CC1` [Compound A119, 2-(1-{2-[(2R,3S)-3-[(6-chloro-3,4-dihydroisoquinolin-2(1H)-yl)carbonyl]-1-{[3-(trifluoromethyl)pyridin-2-yl]carbonyl}-3-{[5-(trifluoromethyl)thiophen-3-yl]oxy}piperidin-2-yl]ethyl}piperidin-4-yl)-2-methylpropanoic acid], the IC50 was in the range of 1 to 100 nM.
The same measure for `CCC[C@H]1N(C(=O)c2ncccc2C(F)(F)F)CCC[C@@]1(Oc1csc(C(F)(F)F)c1)C(=O)N1CCc2ccc(OC)cc2C1` [Compound A140, 7-methoxy-2-{[(2R,3S)-2-propyl-1-{[3-(trifluoromethyl)pyridin-2-yl]carbonyl}-3-{[5-(trifluoromethyl)thiophen-3-yl]oxy}piperidin-3-yl]carbonyl}-1,2,3,4-tetrahydroisoquinoline]: 101 to 20000 nM.

In general, IC50 refers to the point on the concentration scale where inhibition reaches its midpoint. Higher therefore signals weaker potency.
